Measurements as given in ChEMBL document CHEMBL3301546, “MMV Malaria Box yeast growth screening”.

Tests used:
Assay type in all cases: functional
Saccharomyces cerevisiae [1] = assay: (§1) MMV: Growth assays were conducted using the prototrophic S. cerevisiae strain JHY222. Each MMV compound (0.1 mM) was tested in minimal media containing dextrose as a carbon source (Yeast Nitrogen Base, Dextrose; YNBD). The growth rate in the presence of each MMV compound was calculated as follows: (i) the first 10 OD readings were averaged and subtracted from all OD readings of the corresponding curve to set the baseline of the growth curve to zero, and (ii) the area under the curve (AUC) was then calculated as the sum of all OD readings. […] A relative growth value was calculated as follows: AUC(DRUG) - AUC(DMSO)/AUC(DMSO); where AUC(DMSO) represents growth measured in a DMSO control well that was on the same microtiter plate of the drug-treated culture.
Saccharomyces cerevisiae [2] = assay: as §1, with “rich” for “minimal”, “Extract, Peptone,” for “Nitrogen Base,”, “YPD).” for “YNBD).”
Saccharomyces cerevisiae [3] = assay: as §1, with “ethanol and glycerol” for “dextrose”, “as” for “as a”, “sources” for “source”, “Ethanol, Glycerol; YNBEG).” for “Dextrose; YNBD).”

Row | Structure (SMILES) | Relative Growth (Saccharomyces cerevisiae [1]) | Relative Growth (Saccharomyces cerevisiae [2]) | Relative Growth (Saccharomyces cerevisiae [3])
1 | COc1ccc(-c2cc3c(nn2)-c2ccccc2C3=O)cc1 | -0.3119 | 0.0333 | -0.8829
2 | O=C1c2ccccc2-c2nnc(-c3ccc(Br)cc3)cc21 | 0.0312 | -0.0452 | 0.1282
3 | Cc1nc2ccccc2c(O)c1CC=C(Cl)Cl | -0.0687 | -0.1226 | -1.0138
4 | COc1cccc(Nc2nc(N)c3ccccc3n2)c1.Cl | 0.0154 | 0.0358 | -0.036
5 | CC(=O)c1ccc(NC(=O)CSc2nc(-c3ccccc3Cl)ns2)cc1 | 0.0088 | -0.0294 | 0.0011
6 | Cl.c1ccc2c(NCCCCCCNc3c4c(nc5ccccc35)CCCC4)c3c(nc2c1)CCCC3 | -0.2454 | -0.0331 | -0.2596
7 | Brc1ccc(Nc2nc3ccccc3nc2Nc2ccc(Br)cc2)cc1 | -0.0577 | -0.9981 | -0.5592
8 | O=C(NCCCN1CCC(N2CCCCC2)CC1)C1=Cc2cc(Br)ccc2OC1 | -0.0044 | -0.0702 | -0.1063
9 | Cc1ccnc(NC(c2cccc(OCc3ccccc3)c2)c2ccc3cccnc3c2O)c1 (stereo unspecified) | 0.0892 | 0 | -0.3469
10 | Nc1ccc(-c2nc3cc(Cc4ccc5[nH]c(-c6ccc(N)cc6)nc5c4)ccc3[nH]2)cc1 | -0.0312 | -0.9832 | -0.1364
11 | CCCCOC(=O)c1ccc(Nc2cc(C)nc3ccc(OC)cc23)cc1 | -0.0919 | -0.1158 | -0.3112
12 | Cc1cc(Nc2ccc(OCc3ccccc3)cc2)nc2cc(O)ccc12 | -0.1895 | 0.0868 | 0.3239
13 | COc1ccc(Nc2cc(C)nc(NCc3ccccc3)n2)cc1 | 0.0189 | 0.0201 | 0.0325
14 | N=c1c2ccccc2nnn1-c1cccc(C(F)(F)F)c1 | -0.1559 | -0.0528 | -0.1336
15 | COc1cc(-c2nc(-c3ccc(Sc4ccccc4)cc3)c(-c3ccccc3)[nH]2)cc(OC)c1O | -0.0129 | -0.0314 | -0.2127
16 | O=c1cc(NC2CCN(CCCc3ccccc3)CC2)c2cc(Cl)ccc2o1 | 0.014 | -0.0193 | 0.0246
17 | Cc1ccc(OCCCCCCNCCO)c(C)c1 | 0.026 | -0.034 | -0.0581
18 | OC(Cn1nnc2ccccc21)Cn1c2ccc(Br)cc2c2cc(Br)ccc21 (stereo unspecified) | 0.0887 | 0.0859 | 0.1229
19 | CCOc1ccc(-n2cc(-c3ccccc3)c3c(SCc4cc(C)ccc4C)ncnc32)cc1 | -0.0883 | -0.0534 | -0.2113
20 | Cc1ccc(C)c(Cn2c(N3CCC(C(=O)NCc4cccs4)CC3)nc3ccccc32)c1 | -0.0285 | -0.4893 | -0.021
21 | Cc1ccccc1OCCSc1nc2ccc(NC(=O)c3cccs3)cc2s1 | -0.1829 | -0.0038 | -0.9335
22 | CC1CCN(Cc2c(O)ccc3cc(-c4nc5ccccc5s4)c(=O)oc23)CC1 | -0.0399 | -0.0068 | -0.3243
23 | Cc1ccc2cc3c(N)c4c(C)ccc(C)c4nc3nc2c1 | 0.1003 | 0.0134 | 0.0509
24 | CC(C)CCNCC(O)Cn1c2ccccc2c2ccccc21.Cl (stereo unspecified) | -0.9941 | -0.9987 | -1.0262
25 | O=C(Nc1ccc(C23CC4CC(CC(c5ccccc5)(C4)C2)C3)cc1)c1cccs1 | -0.46 | -1.0024 | -0.1427
26 | CCN(CC)CCCNc1ccnc2cc3ccccc3cc12 | 0.0381 | -0.9889 | 0.1561
27 | Cc1ccccc1OCCSc1nc2ccc(NC(=O)c3ccccc3)cc2s1 | -0.1178 | -0.3917 | -0.0554
